The structures appear in SMILES notation. Read-outs that look alike come from different tables or passages of the source.

Assay type in all cases: biochemical
Assay [1] concerns the target T1, 320 wild-type protein kinases (Homo sapiens, UniProt O00141).
T1 sequence (O00141 1-431): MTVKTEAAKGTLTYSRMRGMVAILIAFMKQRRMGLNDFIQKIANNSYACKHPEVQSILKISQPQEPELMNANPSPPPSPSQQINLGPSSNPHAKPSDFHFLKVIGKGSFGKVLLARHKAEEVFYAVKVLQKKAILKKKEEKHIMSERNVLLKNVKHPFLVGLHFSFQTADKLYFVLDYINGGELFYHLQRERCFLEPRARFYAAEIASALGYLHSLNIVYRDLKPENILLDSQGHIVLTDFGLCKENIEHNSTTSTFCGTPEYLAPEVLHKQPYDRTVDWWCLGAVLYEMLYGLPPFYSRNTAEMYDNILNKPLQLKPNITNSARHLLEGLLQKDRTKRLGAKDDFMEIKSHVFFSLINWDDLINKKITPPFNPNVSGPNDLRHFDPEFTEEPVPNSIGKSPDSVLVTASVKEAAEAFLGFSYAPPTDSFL
Conditions: kinase SGK1, singlicate. From the text: (§1) Table S4. Profiling of two compounds at two concentrations against 320 wild-type protein kinases; singlicate measurement; Residual activities (% of control).

For assay [2], the target named is 320 wild-type protein kinases (Homo sapiens, UniProt P10721). To be noted: KIT, singlicate.
Text: as §1

Assay [3] concerns the target 320 wild-type protein kinases (Homo sapiens, UniProt P30291). Conditions: kinase WEE1, singlicate.
Text: as §1

In assay [4] the target is T2, 320 wild-type protein kinases (Homo sapiens, UniProt P35626).
T2 sequence (P35626 1-688): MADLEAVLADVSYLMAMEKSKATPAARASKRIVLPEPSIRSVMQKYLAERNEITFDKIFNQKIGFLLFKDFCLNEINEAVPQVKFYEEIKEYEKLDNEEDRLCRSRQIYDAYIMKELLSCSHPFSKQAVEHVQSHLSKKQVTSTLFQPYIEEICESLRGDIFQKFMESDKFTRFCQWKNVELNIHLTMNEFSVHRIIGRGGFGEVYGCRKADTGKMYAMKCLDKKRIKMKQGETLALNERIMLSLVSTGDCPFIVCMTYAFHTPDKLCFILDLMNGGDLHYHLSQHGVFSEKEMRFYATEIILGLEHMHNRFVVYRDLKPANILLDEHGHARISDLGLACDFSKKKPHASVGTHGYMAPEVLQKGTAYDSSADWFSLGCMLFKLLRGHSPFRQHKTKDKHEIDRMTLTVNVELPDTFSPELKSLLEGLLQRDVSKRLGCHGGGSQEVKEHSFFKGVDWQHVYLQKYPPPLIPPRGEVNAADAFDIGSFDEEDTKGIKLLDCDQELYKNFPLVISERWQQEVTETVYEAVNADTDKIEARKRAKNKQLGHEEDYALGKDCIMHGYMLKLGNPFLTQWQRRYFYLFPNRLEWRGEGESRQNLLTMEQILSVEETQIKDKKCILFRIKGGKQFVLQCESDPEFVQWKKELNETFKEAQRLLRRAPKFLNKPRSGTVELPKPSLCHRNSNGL
To be noted: singlicate.
Text: as §1

Assay [5] deals with 320 wild-type protein kinases (Homo sapiens, UniProt P43250). To be noted: singlicate.
Sequence of 320 wild-type protein kinases (Homo sapiens, UniProt P43250) (P43250 whole entry): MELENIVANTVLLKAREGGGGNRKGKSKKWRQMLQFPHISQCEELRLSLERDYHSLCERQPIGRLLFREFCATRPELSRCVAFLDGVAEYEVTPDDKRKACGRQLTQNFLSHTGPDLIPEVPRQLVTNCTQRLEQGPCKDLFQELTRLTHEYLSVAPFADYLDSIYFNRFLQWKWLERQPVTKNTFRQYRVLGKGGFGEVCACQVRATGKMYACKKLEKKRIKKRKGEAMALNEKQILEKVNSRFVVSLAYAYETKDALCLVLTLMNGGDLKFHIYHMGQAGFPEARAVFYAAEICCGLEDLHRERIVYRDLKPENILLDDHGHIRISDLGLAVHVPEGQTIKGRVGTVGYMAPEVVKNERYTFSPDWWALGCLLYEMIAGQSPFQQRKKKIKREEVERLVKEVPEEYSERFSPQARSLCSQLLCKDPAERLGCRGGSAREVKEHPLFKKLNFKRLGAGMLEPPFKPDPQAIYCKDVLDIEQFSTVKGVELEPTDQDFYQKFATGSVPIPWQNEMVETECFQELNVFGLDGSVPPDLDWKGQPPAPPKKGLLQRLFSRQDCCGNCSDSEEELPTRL
Text: as §1

The target of assay [6] is 320 wild-type protein kinases (Homo sapiens, UniProt P78362). To be noted: kinase SRPK2, singlicate.
Sequence of 320 wild-type protein kinases (Homo sapiens, UniProt P78362) (P78362 whole entry): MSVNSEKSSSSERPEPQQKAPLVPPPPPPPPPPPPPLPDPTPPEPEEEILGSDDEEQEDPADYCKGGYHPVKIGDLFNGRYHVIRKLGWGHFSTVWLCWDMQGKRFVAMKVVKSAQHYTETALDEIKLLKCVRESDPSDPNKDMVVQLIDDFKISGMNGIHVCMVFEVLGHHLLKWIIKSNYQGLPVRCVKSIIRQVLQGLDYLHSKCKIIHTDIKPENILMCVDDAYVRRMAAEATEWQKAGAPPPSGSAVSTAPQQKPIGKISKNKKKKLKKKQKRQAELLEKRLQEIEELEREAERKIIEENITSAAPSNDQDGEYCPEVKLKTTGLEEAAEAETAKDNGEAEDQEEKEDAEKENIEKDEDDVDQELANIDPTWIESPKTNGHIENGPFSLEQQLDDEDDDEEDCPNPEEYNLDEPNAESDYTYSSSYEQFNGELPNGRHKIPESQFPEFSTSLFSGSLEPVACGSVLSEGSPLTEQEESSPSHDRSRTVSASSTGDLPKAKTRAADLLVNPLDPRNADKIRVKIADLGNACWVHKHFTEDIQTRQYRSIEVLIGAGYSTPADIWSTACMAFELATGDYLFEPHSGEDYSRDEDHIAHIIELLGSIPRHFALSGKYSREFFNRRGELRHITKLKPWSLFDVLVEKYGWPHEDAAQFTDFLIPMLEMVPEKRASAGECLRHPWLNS
Text: as §1

Assay [7] deals with T3, 320 wild-type protein kinases (Homo sapiens, UniProt Q08881).
T3 sequence (Q08881 1-620): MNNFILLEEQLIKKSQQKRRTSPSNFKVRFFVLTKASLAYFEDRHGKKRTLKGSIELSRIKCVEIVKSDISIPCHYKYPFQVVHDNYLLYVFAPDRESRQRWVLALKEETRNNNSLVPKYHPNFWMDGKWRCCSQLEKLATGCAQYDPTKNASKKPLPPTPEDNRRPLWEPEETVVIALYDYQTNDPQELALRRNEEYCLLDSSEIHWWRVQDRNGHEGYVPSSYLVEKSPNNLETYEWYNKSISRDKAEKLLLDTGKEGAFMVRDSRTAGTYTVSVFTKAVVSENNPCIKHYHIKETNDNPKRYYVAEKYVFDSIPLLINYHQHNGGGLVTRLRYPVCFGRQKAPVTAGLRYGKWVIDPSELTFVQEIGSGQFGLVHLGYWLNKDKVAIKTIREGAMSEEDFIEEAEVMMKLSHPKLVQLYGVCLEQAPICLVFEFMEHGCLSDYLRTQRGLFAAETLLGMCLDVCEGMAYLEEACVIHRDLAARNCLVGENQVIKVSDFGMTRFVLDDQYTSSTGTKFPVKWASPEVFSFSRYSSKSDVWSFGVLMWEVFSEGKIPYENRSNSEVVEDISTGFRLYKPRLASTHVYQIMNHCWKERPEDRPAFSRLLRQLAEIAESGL
Conditions: ITK, singlicate.
Text: as §1

Assay [8] has as its target 320 wild-type protein kinases (Homo sapiens, UniProt Q9H4A3). Conditions: kinase WNK1, singlicate.
Text: as §1

The target of assay [9] is 320 wild-type protein kinases (Homo sapiens, UniProt Q9HAZ1). To be noted: singlicate.
Sequence of 320 wild-type protein kinases (Homo sapiens, UniProt Q9HAZ1) (Q9HAZ1 whole entry): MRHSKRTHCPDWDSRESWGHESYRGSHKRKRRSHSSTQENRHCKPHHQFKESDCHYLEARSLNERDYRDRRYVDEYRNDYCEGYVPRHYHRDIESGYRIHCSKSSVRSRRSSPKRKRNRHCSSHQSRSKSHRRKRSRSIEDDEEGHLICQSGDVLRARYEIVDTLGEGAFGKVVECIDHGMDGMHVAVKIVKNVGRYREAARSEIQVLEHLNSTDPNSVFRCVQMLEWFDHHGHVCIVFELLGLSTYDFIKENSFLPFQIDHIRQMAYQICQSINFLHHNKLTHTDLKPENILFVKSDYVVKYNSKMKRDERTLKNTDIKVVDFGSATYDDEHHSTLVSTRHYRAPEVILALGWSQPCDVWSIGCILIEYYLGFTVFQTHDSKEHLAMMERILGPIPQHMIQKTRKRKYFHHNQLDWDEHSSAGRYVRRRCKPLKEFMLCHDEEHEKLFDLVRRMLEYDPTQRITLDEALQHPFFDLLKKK
Text: as §1

Assay [10] deals with 320 wild-type protein kinases. To be noted: singlicate.
Text: as §1

Sequence of 320 wild-type protein kinases (Homo sapiens, UniProt P30291) (P30291 whole entry): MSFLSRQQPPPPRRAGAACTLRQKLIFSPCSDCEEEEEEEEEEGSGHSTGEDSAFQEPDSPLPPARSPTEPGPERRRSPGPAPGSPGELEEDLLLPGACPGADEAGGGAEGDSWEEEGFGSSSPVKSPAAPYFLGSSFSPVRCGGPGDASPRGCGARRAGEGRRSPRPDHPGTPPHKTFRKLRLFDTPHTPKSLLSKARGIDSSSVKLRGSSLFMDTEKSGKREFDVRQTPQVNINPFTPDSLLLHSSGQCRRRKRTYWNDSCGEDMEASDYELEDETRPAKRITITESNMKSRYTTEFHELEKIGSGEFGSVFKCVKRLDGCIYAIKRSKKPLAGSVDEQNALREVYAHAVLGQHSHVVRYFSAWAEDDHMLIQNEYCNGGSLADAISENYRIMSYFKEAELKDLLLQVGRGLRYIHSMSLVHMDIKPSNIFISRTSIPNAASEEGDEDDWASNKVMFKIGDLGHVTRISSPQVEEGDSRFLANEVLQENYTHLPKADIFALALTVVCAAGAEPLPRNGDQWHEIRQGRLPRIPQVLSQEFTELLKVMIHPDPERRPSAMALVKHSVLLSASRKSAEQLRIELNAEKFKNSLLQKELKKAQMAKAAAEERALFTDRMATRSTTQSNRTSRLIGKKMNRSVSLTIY
Sequence of 320 wild-type protein kinases (Homo sapiens, UniProt Q9H4A3) (Q9H4A3 whole entry): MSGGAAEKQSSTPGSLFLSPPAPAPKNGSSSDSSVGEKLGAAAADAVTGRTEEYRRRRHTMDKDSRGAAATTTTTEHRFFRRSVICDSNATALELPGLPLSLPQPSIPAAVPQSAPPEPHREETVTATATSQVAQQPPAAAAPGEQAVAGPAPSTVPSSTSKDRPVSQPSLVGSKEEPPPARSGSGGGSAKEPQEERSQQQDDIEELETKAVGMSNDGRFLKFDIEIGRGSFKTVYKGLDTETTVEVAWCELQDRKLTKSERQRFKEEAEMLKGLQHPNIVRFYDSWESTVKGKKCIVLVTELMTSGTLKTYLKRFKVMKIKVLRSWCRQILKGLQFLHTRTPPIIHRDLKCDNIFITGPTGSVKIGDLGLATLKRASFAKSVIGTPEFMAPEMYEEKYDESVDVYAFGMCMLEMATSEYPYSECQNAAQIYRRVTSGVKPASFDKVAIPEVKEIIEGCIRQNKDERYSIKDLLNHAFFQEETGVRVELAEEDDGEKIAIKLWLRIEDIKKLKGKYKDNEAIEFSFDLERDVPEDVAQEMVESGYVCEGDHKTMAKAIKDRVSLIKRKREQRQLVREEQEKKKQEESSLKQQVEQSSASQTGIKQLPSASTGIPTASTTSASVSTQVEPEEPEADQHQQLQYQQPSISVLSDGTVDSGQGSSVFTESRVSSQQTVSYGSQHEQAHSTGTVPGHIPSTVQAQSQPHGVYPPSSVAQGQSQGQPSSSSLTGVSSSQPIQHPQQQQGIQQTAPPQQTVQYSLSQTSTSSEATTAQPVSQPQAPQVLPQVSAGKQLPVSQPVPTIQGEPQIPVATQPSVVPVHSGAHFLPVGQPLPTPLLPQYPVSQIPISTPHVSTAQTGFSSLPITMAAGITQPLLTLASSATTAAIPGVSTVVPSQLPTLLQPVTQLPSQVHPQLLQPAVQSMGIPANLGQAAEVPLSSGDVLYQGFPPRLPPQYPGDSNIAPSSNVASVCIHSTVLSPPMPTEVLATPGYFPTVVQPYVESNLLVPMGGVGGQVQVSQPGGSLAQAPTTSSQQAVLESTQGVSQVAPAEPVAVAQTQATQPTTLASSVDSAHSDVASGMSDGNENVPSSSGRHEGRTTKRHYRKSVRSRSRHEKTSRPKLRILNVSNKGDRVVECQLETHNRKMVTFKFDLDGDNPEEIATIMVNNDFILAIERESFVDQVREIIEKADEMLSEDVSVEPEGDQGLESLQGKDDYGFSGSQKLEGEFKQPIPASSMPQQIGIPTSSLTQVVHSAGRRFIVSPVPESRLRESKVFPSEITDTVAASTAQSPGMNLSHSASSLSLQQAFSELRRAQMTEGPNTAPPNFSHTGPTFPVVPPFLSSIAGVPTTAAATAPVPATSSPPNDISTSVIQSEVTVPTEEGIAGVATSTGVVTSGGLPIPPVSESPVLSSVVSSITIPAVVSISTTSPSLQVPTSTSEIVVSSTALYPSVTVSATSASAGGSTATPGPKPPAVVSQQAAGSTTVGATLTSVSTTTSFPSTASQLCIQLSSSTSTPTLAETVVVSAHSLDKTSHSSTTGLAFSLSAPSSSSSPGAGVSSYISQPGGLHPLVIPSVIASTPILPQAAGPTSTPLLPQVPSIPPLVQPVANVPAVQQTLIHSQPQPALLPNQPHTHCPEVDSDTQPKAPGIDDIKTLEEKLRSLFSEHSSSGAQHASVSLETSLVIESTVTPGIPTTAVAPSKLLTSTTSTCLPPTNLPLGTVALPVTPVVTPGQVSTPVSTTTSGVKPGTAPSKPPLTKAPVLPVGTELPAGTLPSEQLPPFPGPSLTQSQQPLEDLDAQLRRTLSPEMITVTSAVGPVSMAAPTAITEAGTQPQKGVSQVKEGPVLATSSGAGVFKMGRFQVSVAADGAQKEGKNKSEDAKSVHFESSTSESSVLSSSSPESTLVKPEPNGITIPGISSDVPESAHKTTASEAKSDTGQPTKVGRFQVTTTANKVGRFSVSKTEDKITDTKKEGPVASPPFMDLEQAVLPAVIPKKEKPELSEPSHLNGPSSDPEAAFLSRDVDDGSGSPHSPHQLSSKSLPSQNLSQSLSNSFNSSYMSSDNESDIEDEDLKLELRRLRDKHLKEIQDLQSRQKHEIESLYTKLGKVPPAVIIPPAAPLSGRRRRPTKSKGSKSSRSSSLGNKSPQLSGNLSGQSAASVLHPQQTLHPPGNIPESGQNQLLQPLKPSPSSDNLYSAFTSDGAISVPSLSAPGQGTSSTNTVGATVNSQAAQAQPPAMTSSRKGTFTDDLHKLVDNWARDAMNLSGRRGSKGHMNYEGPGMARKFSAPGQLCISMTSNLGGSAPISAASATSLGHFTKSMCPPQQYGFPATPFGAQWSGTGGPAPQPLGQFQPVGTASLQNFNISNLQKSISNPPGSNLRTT

As to `C#Cc1cc(Nc2ncnc3cc(I)ccc23)ccc1Cl` [Compound 41], the “Residual activity, SGK1” value is listed as 77 % of control in [1] (assay conc. 1.0E-06 M) and 103 % of control in [1] (assay conc. 1.0E-07 M). In addition, the Residual activity in assay [2] (1.0E-06 M) is given as 121 % of control; in assay [2] (1.0E-07 M), 128 % of control; in assay [4] (GRK3, 1.0E-06 M), 127 % of control; in assay [4] (GRK3, 1.0E-07 M), 131 % of control; in assay [5] (GRK6, 1.0E-06 M), 120 % of control; in [5] (GRK6, 1.0E-07 M) it was 124 % of control. For the same molecule, the Residual activity was 107 % of control in assay [7] (1.0E-06 M); 99 % of control in assay [7] (1.0E-07 M); 112 % of control in [9] (CLK4, 1.0E-06 M); 111 % of control in assay [9] (CLK4, 1.0E-07 M); 95 % of control in assay [10] (PKC-beta2, 1.0E-06 M); 98 % of control in assay [10] (PKC-beta2, 1.0E-07 M). Also, the “Residual activity, WEE1” value was 87 % of control in assay [3] (assay conc. 1.0E-06 M) and 112 % of control in assay [3] (assay conc. 1.0E-07 M). The figures for the “Residual activity, SRPK2” value in assay [6] (assay conc. 1.0E-06 M) and in assay [6] (assay conc. 1.0E-07 M) were 115 % of control and 131 % of control, respectively. Besides, the “Residual activity, WNK1” value in assay [8] (assay conc. 1.0E-06 M) is 70 % of control; in assay [8] (assay conc. 1.0E-07 M), 84 % of control.
As to `C#Cc1cc(Nc2ncnc3cc(OC)c(OC)cc23)ccc1Cl` [Compound 45], the results for the “Residual activity, SGK1” value in [1] (assay conc. 1.0E-06 M) and in assay [1] (assay conc. 1.0E-07 M) were 88 % of control and 99 % of control, respectively. Also, the Residual activity in assay [2] (1.0E-06 M) was 105 % of control; in assay [2] (1.0E-07 M), 124 % of control; in assay [4] (GRK3, 1.0E-06 M), 118 % of control; in [4] (GRK3, 1.0E-07 M), 123 % of control; in assay [5] (GRK6, 1.0E-06 M), 101 % of control; in assay [5] (GRK6, 1.0E-07 M), 133 % of control. In addition, the Residual activity is 99 % of control in [7] (1.0E-06 M); 88 % of control in assay [7] (1.0E-07 M); 69 % of control in assay [9] (CLK4, 1.0E-06 M); 100 % of control in [9] (CLK4, 1.0E-07 M); 95 % of control in assay [10] (PKC-beta2, 1.0E-06 M); 97 % of control in assay [10] (PKC-beta2, 1.0E-07 M). The “Residual activity, WEE1” value is given as 76 % of control in assay [3] (assay conc. 1.0E-06 M) and 109 % of control in [3] (assay conc. 1.0E-07 M). The “Residual activity, SRPK2” value in assay [6] (assay conc. 1.0E-06 M) is 151 % of control; in assay [6] (assay conc. 1.0E-07 M), 115 % of control. Also, the “Residual activity, WNK1” value in [8] (assay conc. 1.0E-06 M) was 95 % of control; in assay [8] (assay conc. 1.0E-07 M), 93 % of control.

(Values after PMC9329436, “Optimization of the 4-anilinoquin(az)oline scaffold as epidermal growth factor receptor (EGFR) inhibitors for chordoma utilizing a toxicology profiling assay platform” (Scientific Reports, 2022).)
